This note sets out measurements from patent US9416114B2, “1,2,4-triazine derivatives for the treatment of viral infections” (CENTRE NATIONAL DE LA RECHERCHE SCIENTIFIQUE (CNRS), priority 2012, dated 2016).

Holding throughout (assay type): cell-based
For one assay, the target named is T1, human TLR7 (Homo sapiens, UniProt Q9NYK1).
T1 construct: expressed in transfected cells; host or cells: HEK293
T1 sequence (Q9NYK1 27-1049): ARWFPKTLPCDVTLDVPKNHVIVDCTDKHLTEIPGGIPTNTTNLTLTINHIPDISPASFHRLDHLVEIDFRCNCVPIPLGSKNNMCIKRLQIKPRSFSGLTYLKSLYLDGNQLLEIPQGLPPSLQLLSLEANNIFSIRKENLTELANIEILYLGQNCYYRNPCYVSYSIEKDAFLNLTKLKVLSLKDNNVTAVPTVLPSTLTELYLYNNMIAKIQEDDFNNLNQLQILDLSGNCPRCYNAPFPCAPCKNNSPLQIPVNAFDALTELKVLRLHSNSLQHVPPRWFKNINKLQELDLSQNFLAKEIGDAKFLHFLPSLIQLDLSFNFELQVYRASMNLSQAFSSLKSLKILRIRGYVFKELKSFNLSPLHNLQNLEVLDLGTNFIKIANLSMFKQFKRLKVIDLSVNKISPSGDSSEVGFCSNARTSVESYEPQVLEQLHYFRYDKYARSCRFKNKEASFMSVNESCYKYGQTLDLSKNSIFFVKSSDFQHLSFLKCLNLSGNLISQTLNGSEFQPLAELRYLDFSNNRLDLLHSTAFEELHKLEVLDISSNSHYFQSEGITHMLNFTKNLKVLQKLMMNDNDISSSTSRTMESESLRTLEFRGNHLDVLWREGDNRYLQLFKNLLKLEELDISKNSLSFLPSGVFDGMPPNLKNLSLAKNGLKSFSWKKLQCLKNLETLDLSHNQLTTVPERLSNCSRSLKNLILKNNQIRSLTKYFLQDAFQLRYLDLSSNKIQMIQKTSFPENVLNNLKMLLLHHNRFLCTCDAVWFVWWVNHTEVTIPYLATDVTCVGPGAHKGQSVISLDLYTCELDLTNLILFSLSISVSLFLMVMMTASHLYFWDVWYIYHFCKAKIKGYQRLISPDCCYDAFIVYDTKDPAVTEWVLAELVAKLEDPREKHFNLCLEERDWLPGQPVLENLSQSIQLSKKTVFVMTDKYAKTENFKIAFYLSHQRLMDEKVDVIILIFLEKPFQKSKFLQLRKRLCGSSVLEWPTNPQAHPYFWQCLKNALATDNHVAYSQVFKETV
The assay is described as follows: TLR7 cellular reporter assay (HEK293, NFκB-luc). The settings on record: HEK293 transiently transfected with TLR7 and NFκB-luc; 6 hours incubation; lowest effective concentration. For orientation: In a reporter assay the amount or activity of a reporter protein is the signal.

A further assay addresses T2, human TLR8 (Homo sapiens, UniProt Q9NR97).
T2 construct: expressed in transfected cells; host or cells: HEK293
T2 sequence (Q9NR97 27-1041): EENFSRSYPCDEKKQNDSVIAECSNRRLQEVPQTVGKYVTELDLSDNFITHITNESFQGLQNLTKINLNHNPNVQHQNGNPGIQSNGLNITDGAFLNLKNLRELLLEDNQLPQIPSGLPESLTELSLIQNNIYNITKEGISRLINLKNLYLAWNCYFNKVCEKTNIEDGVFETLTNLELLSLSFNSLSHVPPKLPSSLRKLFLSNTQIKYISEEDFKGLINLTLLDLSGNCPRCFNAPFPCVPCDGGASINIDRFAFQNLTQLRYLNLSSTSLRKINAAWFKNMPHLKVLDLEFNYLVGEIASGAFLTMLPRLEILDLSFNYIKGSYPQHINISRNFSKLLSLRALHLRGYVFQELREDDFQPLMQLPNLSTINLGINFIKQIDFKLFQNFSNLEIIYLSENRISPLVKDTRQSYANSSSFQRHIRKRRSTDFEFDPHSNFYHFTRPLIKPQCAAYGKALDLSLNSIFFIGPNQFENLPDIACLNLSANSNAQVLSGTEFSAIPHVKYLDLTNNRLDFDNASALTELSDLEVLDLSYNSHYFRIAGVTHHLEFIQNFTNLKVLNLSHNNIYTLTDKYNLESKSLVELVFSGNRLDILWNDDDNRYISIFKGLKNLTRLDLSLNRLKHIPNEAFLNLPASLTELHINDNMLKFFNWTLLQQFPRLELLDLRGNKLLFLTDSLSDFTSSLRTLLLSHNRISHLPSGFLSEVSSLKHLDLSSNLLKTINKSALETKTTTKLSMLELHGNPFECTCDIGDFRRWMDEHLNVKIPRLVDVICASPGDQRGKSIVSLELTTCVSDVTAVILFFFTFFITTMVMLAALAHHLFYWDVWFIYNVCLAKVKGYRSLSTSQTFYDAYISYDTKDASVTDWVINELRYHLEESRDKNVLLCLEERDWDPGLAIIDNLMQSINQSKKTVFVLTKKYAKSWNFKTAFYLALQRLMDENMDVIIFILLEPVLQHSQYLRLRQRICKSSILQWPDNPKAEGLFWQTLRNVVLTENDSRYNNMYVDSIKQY
In words: TLR8 cellular reporter assay (HEK293, NFκB-luc). As to conditions: HEK293 transiently transfected with TLR8 and NFκB-luc; 6 hours incubation; lowest effective concentration.

Assay [1] relates to interferon-stimulated responsive elements (ISRE). The assay is described as follows: Activation of ISRE promoter elements by conditioned media from PBMC (HEK-ISREluc). The settings on record: Homo sapiens, read-out: HEK-ISRE luc (LEC). The procedure: The potential of compounds to induce IFN-I was also evaluated by measuring the activation of interferon-stimulated responsive elements (ISRE) by conditioned media from PBMC. The ISRE element of sequence […] is highly responsive to the STAT1-STAT2-IRF9 transcription factor, activated upon binding of IFN-I to their receptor IFNAR (Clontech, PT3372-5W). The plasmid pISRE-Luc from Clontech (ref. 631913) contains 5 copies of this ISRE element, followed by the firefly luciferase ORF. A HEK293 cell line stably transfected with pISRE-Luc (HEK-ISREluc) was established to profile of the conditioned PBMC cell culture media.
Briefly, PBMCs were prepared from buffy coats of at least two donors using a standard Ficoll centrifugation protocol. Isolated PBMCs were resuspended in RPMI medium supplemented with 10% human AB serum and 2×10^5 cells/well were dispensed into 384-well plates containing compounds (70 μL total volume). After overnight incubation, 10 μL of supernatant was transferred to 384-well plates containing 5×10^3 HEK-ISREluc cells/well in 30 μL (plated the day before). Following 24 hours of incubation, activation of the ISRE elements was measured by assaying luciferase activity using 40 μL/well Steady Lite Plus substrate (Perkin Elmer) and measured with ViewLux ultraHTS microplate imager (Perkin Elmer). The stimulating activity of each compound on the HEK-ISREluc cells was reported as LEC value, defined as the compound concentration applied to the PBMCs resulting in a luciferase activity at least two fold above the standard deviation of the assay. The LEC in turn indicates the degree of ISRE activation on transfer of a defined amount of PBMC culture medium. Recombinant interferon α-2a (Roferon-A) was used as a standard control compound.

Where [2] appears, read: PBMC conditioned medium transferred to HEK-ISREluc cells, 24 hours, lowest effective concentration.

Read-outs that look alike come from different tables or passages of the source.

Procedure for human TLR7: (§1) The ability of compounds to activate human TLR7 and/or TLR8 was assessed in a cellular reporter assay using HEK293 cells transiently transfected with a TLR7 or TLR8 expression vector and NFκB-luc reporter construct.
(§2) Briefly, HEK293 cells were grown in culture medium (DMEM supplemented with 10% FCS and 2 mM Glutamine). For transfection of cells in 10 cm dishes, cells were detached with Trypsin-EDTA, transfected with a mix of CMV-TLR7 or TLR8 plasmid (750 ng), NFκB-luc plasmid (375 ng) and a transfection reagent and incubated overnight at 37° C. in a humidified 5% CO2 atmosphere. […] Thirty microliters of cells were then dispensed into each well in 384-well plates, where 10 μL of compound in 4% DMSO was already present. Following 6 hours incubation at 37° C., 5% CO2, the luciferase activity was determined by adding 15 μL of Steady Lite Plus substrate (Perkin Elmer) to each well and readout performed on a ViewLux ultraHTS microplate imager (Perkin Elmer). Dose response curves were generated from measurements performed in quadruplicates.
Procedure for human TLR8: as §1, §2

As to `CCCCNc1nc(N)nnc1OCCOC` [Compound 22], at human TLR7, the “Human TLR 7 (LEC)” value is 4.75 µM. On human TLR8, the “Human TLR 8 (LEC)” value was found to be 1.0 µM. Also, in assay [1] (PBMC, 24 h), the minimal effective concentration was 0.41 µM.
Consider `CCCCNc1nc(N)nnc1OC(C)C` [Compound 18], for which, on human TLR7, the “Human TLR 7 (LEC)” value was found to be 8.27 µM. Also, the minimal effective concentration in assay [1] (setting [2]) turned out to be 0.53 µM.
Regarding `CCCCNc1nc(N)nnc1OCCCN(C)C` [Compound 24], the “Human TLR 7 (LEC)” value at human TLR7 was over 25 µM. Also, the “Human TLR 8 (LEC)” value on human TLR8 was determined as 0.1 µM. In addition, the minimal effective concentration in assay [1] (PBMC, 24 h) was found to be 0.17 µM.
As to `CCC[C@@H](CCO)Nc1nc(N)nnc1OCc1nccc(OC)c1OC` [Compound 8], the “Human TLR 7 (LEC)” value on human TLR7 amounted to 0.24 µM. At human TLR8, the “Human TLR 8 (LEC)” value is 0.56 µM. For the same compound, the minimal effective concentration in assay [1] (setting [2]) was 0.014 µM.
As to `CCCCNc1nc(N)nnc1OC` [Compound 17], the “Human TLR 7 (LEC)” value at human TLR7 was 17.49 µM. Besides, in assay [1] (setting [2]), the minimal effective concentration is 1.02 µM.
For the compound `CCCCNc1nc(N)nnc1OCc1ccccc1` [Compound 15], on human TLR7, the “Human TLR 7 (LEC)” value came out at 2.94 µM. Further, the “Human TLR 8 (LEC)” value on human TLR8 turned out to be 1.93 µM. Besides, in assay [1] (setting [2]), the minimal effective concentration was 1.85 µM.
With `CCCCNc1nc(N)nnc1OCc1ccccc1OC` [Compound 19], the “Human TLR 8 (LEC)” value on human TLR8 is 0.64 µM. Besides, in assay [1] (setting [2]), the minimal effective concentration was 0.43 µM.
Take `CCCCNc1nc(N)nnc1OCCCc1ccc(OC)cc1` [Compound 16]: the “Human TLR 7 (LEC)” value on human TLR7 came to 0.38 µM. In addition, the “Human TLR 8 (LEC)” value on human TLR8 came to 0.81 µM. Also, the minimal effective concentration in assay [1] (setting [2]) was 0.14 µM.
On to `CCCCNc1nc(N)nnc1OCc1cccnc1` [Compound 21], for which the “Human TLR 7 (LEC)” value on human TLR7 came to 1.71 µM. Also, in assay [1] (PBMC, 24 h), the minimal effective concentration was 0.14 µM.
Turning to `CCCC[C@@H](CCO)Nc1nc(N)nnc1OC` [Compound 12], the “Human TLR 7 (LEC)” value at human TLR7 was 7.8 µM. For the same compound, in assay [1] (setting [2]), the minimal effective concentration is 2.72 µM.
Taken in the same sequence, the figures for `CCCCNc1nc(N)nnc1OCc1ccccn1` [Compound 23] were 0.17 µM and 0.14 µM.
For the compound `CCCCNc1nc(N)nnc1OCc1ccccc1F` [Compound 20], the “Human TLR 7 (LEC)” value at human TLR7 amounted to 0.75 µM. In assay [1] (PBMC, 24 h), the minimal effective concentration amounted to 0.54 µM.
